These results are taken from patent publication US10881663B2, “Method of treating pain in elderly patients with mild renal impairment” (Baudax Bio, Inc., priority 2018, dated 2021).

A word on the Cmax: it is the peak of the concentration-time curve. Usually Tmax stands for the time from dosing to the highest level.

For data set [1] the following is noted: intravenous; Ketorolac Tromethamine Injection Prescribing Information; cited from earlier work.
Data set [2] can be described thus: Safety of repeat-dose IV meloxicam 30 mg after major surgery in elderly subjects with impaired renal function (Example 4). Conditions: for tolerability: advanced age.
Data set [3] is described as follows: Injection site pain reported after intravenous meloxicam. It counts as in vivo, human. Particulars: patients receiving a dose of intravenous meloxicam.
Data set [4] is described as follows: Postoperative opioid analgesic use, IV meloxicam 30 mg vs placebo (Example 4). Format: in vivo, human. Particulars: for reduction in opioid use compared with placebo: 30 mg IV, p<0.05.
Data set [5] can be described thus: Safety of single IV dose 30 mg meloxicam (Example 3). It counts as in vivo, human. As to the method:
This study was a single-center, open-label evaluation of the pharmacokinetics and safety, of single doses of meloxicam in elderly subjects with impaired renal function compared with healthy controls. The study enrolled 12 subjects. Eligible subjects were assigned to a study cohort based on their age and renal function. Renal function was assessed using below the equation for estimation of the glomerular filtration rate (GFR). GFR(mL/min/1.73 m^2)=175×(SCr)^−1.154×(Age)^−0.203×(0.742 if female)×(1.212 if African American)
Enrolled subjects were matched between cohorts according to gender and BMI (±20%). Subjects were assigned to cohorts as follows: • Cohort 1 (n=6; 3 male, 3 female): subjects aged 65 to 80 years with impaired renal function (GFR 60-89 mL/min/1.73 m^2) • Cohort 2 (n=6; 3 male, 3 female): subjects aged 18 to 55 years with normal renal function (GFR≥90 mL/min/1.73 m^2).
Enrolled subjects returned to the study center on the day before dosing (Day −1). During the treatment visit (Day −1 to Day 3), subjects received a single IV dose 30 mg (25 mg/mL) meloxicam. Whole blood samples were collected for pharmacokinetic (PK) analysis prior to dosing and 5, 10, 20, 30, and 45 minutes, and 1, 2, 4, 6, 12, 18, 24, 36, and 48 hours after dosing.
Safety assessments included monitoring of AEs (adverse events), clinical laboratory tests, vital sign measurements, and ECGs. Upon completion of the treatment visit through Hour 48 (Day 3) assessments, the subjects were discharged from the study center.

Data set [6] in a line: Single-dose IV meloxicam pharmacokinetics in elderly subjects with mild renal impairment vs healthy controls (Example 3). Particulars: single IV dose 30 mg; for AUC(0-6) / AUC(0-t) / AUC(0-inf) / Cmax: iv, 30 mg; for AUC(0-6): AUC0-6 (Mean ± SD), heading: AUC0-6. It counts as in vivo, human. As to the method: This study was a single-center, open-label evaluation of the pharmacokinetics and safety, of single doses of meloxicam in elderly subjects with impaired renal function compared with healthy controls. The study enrolled 12 subjects. Eligible subjects were assigned to a study cohort based on their age and renal function. Renal function was assessed using below the equation for estimation of the glomerular filtration rate (GFR).
SCr=serum creatinine measured with a standardized assay.
Enrolled subjects were matched between cohorts according to gender and BMI (±20%).
Enrolled subjects returned to the study center on the day before dosing (Day −1).

Entries after “also recorded” stand apart in the source; their conditions may differ. Where two headings read alike, the source gives them in different places.

As to `O=C(c1ccccc1)c1ccc2n1CCC2C(=O)O` (stereo not drawn) [ketorolac], in data set [1], the “onset of pain relief” value is listed as “up to 30 minutes”.

Take `Cc1cnc(NC(=O)C2=C(O)c3ccccc3S(=O)(=O)N2C)s1` [meloxicam, 4-hydroxy-2-methyl-N-(5-methyl-2-thiazolyl)-2H-1,2-benzothiazine-3-carboxamide-1,1-dioxide]: the “intensity of AEs” value in data set [2] (30 mg IV every 24 hours up to 7 doses) and in data set [5] (single IV dose 30 mg) was “generally mild or moderate in intensity” each time. Further, the tolerability result was “well tolerated” in data set [2] (30 mg IV every 24 hours up to 7 doses after major surgery, impaired renal function); “well tolerated with no deaths or discontinuations due to an AE” in data set [2] (30 mg IV every 24 hours up to 7 doses after major surgery, impaired renal function, listed as IV meloxicam); “well tolerated with no incidence of death, SAEs (severe adverse events), or discontinuations due to an AE; also recorded: safe and well tolerated” in data set [5] (single IV dose 30 mg, healthy subjects and subjects with mild renal impairment). The “incidence of SAEs” value in data set [2] (30 mg IV every 24 hours up to 7 doses after major surgery, age 66-80 years, impaired renal function) was 2.3%. In addition, the “injection site AEs” value in data set [2] (30 mg IV over 15-30 seconds every 24 hours up to 7 doses) is reported as “no injection site AEs”. Moreover, the “patients who reported injection site pain” value in data set [3] stood at 2%. The “reduction in opioid use compared with placebo” value in data set [4] (Hour 0-24 interval) turned out to be 42.8%; in data set [4] (Hour 24-48 interval), 41.9%. For the same molecule, the “statistically significant reductions in opioid use compared with placebo” value in data set [4] (during treatment, 30 mg IV daily) is “up to 42.8%”. In addition, in data set [5] (30 mg as an IV infusion over 17-20 seconds), the “infusion or infusion site reactions” value is recorded as “not associated with any infusion, or infusion site, reactions”. In data set [5] (single IV dose 30 mg), the “vital sign or ECG findings” value was “no clinically significant vital sign or ECG (electrocardiogram) findings”. Moreover, in data set [5] (single IV dose 30 mg, all 12 subjects), the “incidence of adverse events (subjects with any event)” value is 33.3%. Further, the AUC(0-6) in data set [6] (both sexes, human, plasma, Cohort 1 (65-80 years, mild renal impairment)) was 16100 ± 1700 ng·h/mL; in data set [6] (both sexes, human, plasma, Cohort 2 (18-55 years, normal renal function)) it was 16300 ± 2170 ng·h/mL. For the same molecule, the AUC(0-t) was 26000 ± 2690 ng·h/mL in data set [6] (both sexes, human, plasma, Cohort 1 (65-80 years, mild renal impairment), read-out: AUC0-12 (Mean ± SD)); 40600 ± 4750 ng·h/mL in data set [6] (both sexes, human, plasma, Cohort 1 (65-80 years, mild renal impairment), read-out: AUC0-24 (Mean ± SD)); 70900 ± 18500 ng·h/mL in data set [6] (both sexes, human, plasma, Cohort 1 (65-80 years, mild renal impairment), read-out: AUC0-t (Mean ± SD)); 69100 ng·h/mL in data set [6] (both sexes, human, plasma, Cohort 1 (mild renal impairment), read-out: AUC0-t, Least Square Geometric Mean); 26400 ± 3920 ng·h/mL in data set [6] (both sexes, human, plasma, Cohort 2 (18-55 years, normal renal function), read-out: AUC0-12 (Mean ± SD)); 41000 ± 8670 ng·h/mL in data set [6] (both sexes, human, plasma, Cohort 2 (18-55 years, normal renal function), read-out: AUC0-24 (Mean ± SD)). Besides, the AUC(0-t) is 67900 ± 22500 ng·h/mL in data set [6] (both sexes, human, plasma, Cohort 2 (18-55 years, normal renal function), read-out: AUC0-t (Mean ± SD)) and 64500 ng·h/mL in data set [6] (both sexes, human, plasma, Cohort 2 (healthy control), read-out: AUC0-t, Least Square Geometric Mean). In addition, the AUC(0-inf) worked out at 71800 ± 19600 ng·h/mL in data set [6] (both sexes, human, plasma, Cohort 1 (65-80 years, mild renal impairment), read-out: AUC0-∞ (Mean ± SD)); 69800 ng·h/mL in data set [6] (both sexes, human, plasma, Cohort 1 (mild renal impairment), read-out: AUC0-∞, Least Square Geometric Mean); 68500 ± 22800 ng·h/mL in data set [6] (both sexes, human, plasma, Cohort 2 (18-55 years, normal renal function), read-out: AUC0-∞ (Mean ± SD)); 65100 ng·h/mL in data set [6] (both sexes, human, plasma, Cohort 2 (healthy control), read-out: AUC0-∞, Least Square Geometric Mean). Also, the maximum concentration (Cmax) in data set [6] (both sexes, human, plasma, Cohort 1 (mild renal impairment), read-out: Cmax, Least Square Geometric Mean) came out at 5870 ng/mL; in data set [6] (both sexes, human, plasma, Cohort 1: aged 65 to 80 years, GFR 60-89 mL/min/1.73 m^2, plasma, read-out: Cmax (Mean ± SD)), 5920 ± 842 ng/mL; in data set [6] (both sexes, human, plasma, Cohort 2 (healthy control), read-out: Cmax, Least Square Geometric Mean) it was 5580 ng/mL; in data set [6] (both sexes, human, plasma, Cohort 2: aged 18 to 55 years, normal renal function, plasma, read-out: Cmax (Mean ± SD)), 5620 ± 713 ng/mL. The Tmax in data set [6] (both sexes, human, plasma, all subjects (both cohorts)) is 4.8 min. The “AUC0-t, Least Square Geometric Mean Ratio (%) (Cohort 1/Cohort 2)” value in data set [6] worked out at 107%. For the same molecule, the “AUC0-∞, Least Square Geometric Mean Ratio (%) (Cohort 1/Cohort 2)” value in data set [6] is listed as 107%. The “Cmax, Least Square Geometric Mean Ratio (%) (Cohort 1/Cohort 2)” value in data set [6] stood at 105%. The “Tmax, Median (range)” value in data set [6] (Cohort 1 (65-80 years, mild renal impairment)) is given as 0.08 (0.08-0.08) h; in data set [6] (Cohort 2 (18-55 years, normal renal function)), 0.08 (0.08-0.08) h.
